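Grown in 96-well plates, cells were treated for 48 hours with each compound at five concentrations. Insufficient inhibition: endpoint recorded as highest concentration tested. GI50 is the concentration that inhibits growth by half. TGI marks complete inhibition of growth.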
Assays:
Assay in all cases: NCI anticancer screen, dose series, 48 h
UACC-62 melanoma = tested on: UACC-62 melanoma
BT-549 breast = tested on: BT-549 breast
MDA-MB-231 breast = tested on: MDA-MB-231 breast
M14 melanoma = tested on: M14 melanoma
OVCAR-8 ovarian = tested on: OVCAR-8 ovarian
HCC-2998 colon = tested on: HCC-2998 colon
HOP-92 NSCLC = tested on: HOP-92 NSCLC
RPMI-8226 leukemia = tested on: RPMI-8226 leukemia
KM12 colon = tested on: KM12 colon
EKVX NSCLC = tested on: EKVX NSCLC
RXF 393 renal = tested on: RXF 393 renal
A498 renal = tested on: A498 renal
SK-OV-3 ovarian = tested on: SK-OV-3 ovarian
ACHN renal = tested on: ACHN renal
OVCAR-3 ovarian = tested on: OVCAR-3 ovarian
HL-60(TB) leukemia = tested on: HL-60(TB) leukemia
MDA-MB-435 = tested on: MDA-MB-435
PC-3 prostate = tested on: PC-3 prostate
NCI-H460 lung = tested on: NCI-H460 lung
SNB-19 CNS = tested on: SNB-19 CNS
MCF7 breast = tested on: MCF7 breast
K-562 leukemia = tested on: K-562 leukemia
MALME-3M melanoma = tested on: MALME-3M melanoma
HCT-15 colon = tested on: HCT-15 colon
T-47D breast = tested on: T-47D breast
SN12C renal = tested on: SN12C renal
CCRF-CEM leukemia = tested on: CCRF-CEM leukemia
TK-10 renal = tested on: TK-10 renal
SNB-75 CNS = tested on: SNB-75 CNS
SR leukemia = tested on: SR leukemia
UO-31 renal = tested on: UO-31 renal
OVCAR-5 ovarian = tested on: OVCAR-5 ovarian
SF-268 CNS = tested on: SF-268 CNS
NCI-H226 lung = tested on: NCI-H226 lung
SF-295 CNS = tested on: SF-295 CNS
SK-MEL-5 melanoma = tested on: SK-MEL-5 melanoma
A549 NSCLC = tested on: A549 NSCLC
SK-MEL-28 melanoma = tested on: SK-MEL-28 melanoma
786-0 renal = tested on: 786-0 renal
SK-MEL-2 melanoma = tested on: SK-MEL-2 melanoma
MOLT-4 leukemia = tested on: MOLT-4 leukemia
HT29 colon = tested on: HT29 colon
SW-620 colon = tested on: SW-620 colon
CAKI-1 renal = tested on: CAKI-1 renal
DU-145 prostate = tested on: DU-145 prostate
HOP-62 NSCLC = tested on: HOP-62 NSCLC
IGROV1 ovarian = tested on: IGROV1 ovarian
HS 578T breast = tested on: HS 578T breast
U251 CNS = tested on: U251 CNS
OVCAR-4 ovarian = tested on: OVCAR-4 ovarian
UACC-257 melanoma = tested on: UACC-257 melanoma
SF-539 CNS = tested on: SF-539 CNS

CC1(C)[C@@H](O)CC[C@]2(C)[C@H]3CC[C@@H]4[C@H]5[C@H](C(=O)/C=C\c6ccccn6)CC[C@]5(O)CC[C@@]4(C)[C@]3(C)CC[C@@H]12
GI50 (UACC-62 melanoma): 1.74 µM
TGI (UACC-62 melanoma): 3.95 µM
GI50 (BT-549 breast): 1.96 µM
TGI (BT-549 breast): 3.57 µM
GI50 (MDA-MB-231 breast): 3.04 µM
TGI (MDA-MB-231 breast): > 100 µM
GI50 (M14 melanoma): 2.26 µM
TGI (M14 melanoma): 5.87 µM
GI50 (OVCAR-8 ovarian): 3.37 µM
TGI (OVCAR-8 ovarian): > 100 µM
GI50 (HCC-2998 colon): 1.94 µM
TGI (HCC-2998 colon): 3.52 µM
GI50 (HOP-92 NSCLC): 1.34 µM
TGI (HOP-92 NSCLC): 3.74 µM
GI50 (RPMI-8226 leukemia): 1.76 µM
TGI (RPMI-8226 leukemia): 5.35 µM
GI50 (KM12 colon): 1.85 µM
TGI (KM12 colon): 3.96 µM
GI50 (EKVX NSCLC): 2.62 µM
TGI (EKVX NSCLC): 13.3 µM
GI50 (RXF 393 renal): 1.74 µM
TGI (RXF 393 renal): 3.15 µM
GI50 (A498 renal): 1.66 µM
TGI (A498 renal): 4.33 µM
GI50 (SK-OV-3 ovarian): 5.35 µM
TGI (SK-OV-3 ovarian): 30.7 µM
GI50 (ACHN renal): 2.33 µM
TGI (ACHN renal): 6.28 µM
GI50 (OVCAR-3 ovarian): 1.87 µM
TGI (OVCAR-3 ovarian): 4.89 µM
GI50 (HL-60(TB) leukemia): 1.81 µM
TGI (HL-60(TB) leukemia): 5.74 µM
GI50 (MDA-MB-435): 1.76 µM
TGI (MDA-MB-435): 3.75 µM
GI50 (PC-3 prostate): 2.1 µM
TGI (PC-3 prostate): 6.24 µM
GI50 (NCI-H460 lung): 1.9 µM
TGI (NCI-H460 lung): 4.83 µM
GI50 (SNB-19 CNS): 2.77 µM
TGI (SNB-19 CNS): 10.8 µM
GI50 (MCF7 breast): 0.768 µM
TGI (MCF7 breast): 4.54 µM
GI50 (K-562 leukemia): 2.25 µM
TGI (K-562 leukemia): > 100 µM
GI50 (MALME-3M melanoma): 2.16 µM
TGI (MALME-3M melanoma): 4.78 µM
GI50 (HCT-15 colon): 1.9 µM
TGI (HCT-15 colon): 5.52 µM
GI50 (T-47D breast): 1.52 µM
TGI (T-47D breast): 8.62 µM
GI50 (SN12C renal): 3.08 µM
TGI (SN12C renal): > 100 µM
GI50 (CCRF-CEM leukemia): 2.06 µM
TGI (CCRF-CEM leukemia): 8.51 µM
GI50 (TK-10 renal): 3.23 µM
TGI (TK-10 renal): 9.31 µM
GI50 (SNB-75 CNS): 7.59 µM
TGI (SNB-75 CNS): > 100 µM
GI50 (SR leukemia): 1.71 µM
TGI (SR leukemia): 14.5 µM
GI50 (UO-31 renal): 1.6 µM
TGI (UO-31 renal): 3.23 µM
GI50 (OVCAR-5 ovarian): 2.89 µM
TGI (OVCAR-5 ovarian): 7.92 µM
GI50 (SF-268 CNS): 2.38 µM
TGI (SF-268 CNS): 8.44 µM
GI50 (NCI-H226 lung): 3.05 µM
TGI (NCI-H226 lung): 34.5 µM
GI50 (SF-295 CNS): 2.61 µM
TGI (SF-295 CNS): 8.55 µM
GI50 (SK-MEL-5 melanoma): 1.63 µM
TGI (SK-MEL-5 melanoma): 3.05 µM
GI50 (A549 NSCLC): 2.77 µM
TGI (A549 NSCLC): 9.37 µM
GI50 (SK-MEL-28 melanoma): 2.04 µM
TGI (SK-MEL-28 melanoma): 4.13 µM
GI50 (786-0 renal): 2.23 µM
TGI (786-0 renal): 4.73 µM
GI50 (SK-MEL-2 melanoma): 2.61 µM
TGI (SK-MEL-2 melanoma): 7.18 µM
GI50 (MOLT-4 leukemia): 2.39 µM
TGI (MOLT-4 leukemia): > 100 µM
GI50 (HT29 colon): 3.33 µM
TGI (HT29 colon): > 100 µM
GI50 (SW-620 colon): 1.93 µM
TGI (SW-620 colon): 4.85 µM
GI50 (CAKI-1 renal): 2.02 µM
TGI (CAKI-1 renal): 8.4 µM
GI50 (DU-145 prostate): 1.75 µM
TGI (DU-145 prostate): 3.52 µM
GI50 (HOP-62 NSCLC): 1.8 µM
TGI (HOP-62 NSCLC): 4.99 µM
GI50 (IGROV1 ovarian): 1.9 µM
TGI (IGROV1 ovarian): 4.07 µM
GI50 (HS 578T breast): 6.84 µM
TGI (HS 578T breast): > 100 µM
GI50 (U251 CNS): 1.61 µM
TGI (U251 CNS): 3.1 µM
GI50 (OVCAR-4 ovarian): 3.92 µM
TGI (OVCAR-4 ovarian): 46.4 µM
GI50 (UACC-257 melanoma): 3.25 µM
TGI (UACC-257 melanoma): 39.2 µM
GI50 (SF-539 CNS): 2.34 µM
TGI (SF-539 CNS): 6.34 µM
